Data set [1] in a line: Single compound bioaccessibility: LC–HRMS intensities after in vitro gastrointestinal digestion vs other extractions. It counts as in vitro ADME. To be noted: whole sample set, Dig vs Org and No_Dig.
Description: Five grams of each sample underwent in vitro gastrointestinal digestion. The simulated digestion was performed following the three-stage model (oral, gastric, and intestinal phases) proposed by the INFOGEST consortium and described by Minekus et al. [13] with the slight modifications described in [14]. Briefly, during the oral phase (2 min), samples were mixed at 37 °C in a SW-20 water bath (Julabo GmbH, Seelbach, Germany) with an electrolyte solution to simulate salivary fluid and with amylase enzyme. Samples then underwent a gastric phase (2 h) in which they were mixed with simulated gastric fluid and pepsin enzyme. Finally, during the intestinal phase (2 h), samples from the gastric phase were mixed with simulated intestinal fluid, bile salts, and pancreatin. Solutions were adjusted to pH 3 and 7 for the gastric and intestinal phases, respectively, with a MICROpH 2002 pH-meter (CRISON, Carpi, Italy), and the digestion process was stopped by bringing the pH down to 5.4. Samples were then centrifuged at 12,500× g and 0 °C for 10 min in a Heraeus megafuge 11R centrifuge (THERMO electron, Chateau-Gontier (France), and the supernatants were filtered through a 0.45 μm CA syringe filters and immediately stored at −20 °C until further analysis. The digestion process was replicated four times for each sample. Digestion blanks in which the whole sample was replaced with 5 mL of water were also prepared in order to monitor the possible contributions of the enzymes and salts employed during in vitro digestion in the subsequent analytic determinations.
Non-digestion extraction was performed to allow a comparison with the samples digested in vitro. This employed the same temperature and time conditions and the same weight and volume ratios. Samples were extracted at 37 °C for 4 h and 2 min (the whole time for the simulated gastrointestinal digestion) with just Milli-Q water and without enzymes or simulated fluids in order to avoid food matrix degradation due to those components. After this, non-digested samples were centrifuged and filtered in the same way as the digested samples.
Characterization of polyphenols and methylxanthines from all the extract types (Org, Dig, and No_Dig) of the samples was performed with an untargeted metabolomics approach by using a rapid-resolution LC system (RRLC) 1200 series (Agilent Technologies, Waldbronn, Germany), including a binary pump, thermostatized autosampler, column oven, and a DAD detector. The RRLC system was coupled to a 6520 series electrospray ionization (ESI) source with a quadrupole time-of-flight (QTOF) mass spectrometer (Agilent Technologies). Compound separation was performed using an InfinityLab Poroshell 120EC-C18 column (2.1 × 100 mm, particle size of 2.7 μm) with a guard column (2.1 × 5 mm) (Agilent Technologies). […]
Data set [2] concerns Caco-2 cell monolayers.
Data set [3] deals with Caco-2 cells. To be noted: cited from earlier work; for Papp values: in purified extracts, ref Kosińska et al.
A short description of data set [4]: in vitro. To be noted: human, Caco-2.

Where two headings read alike, the source gives them in different places.

For the compound `Oc1cc(O)c2c(c1)O[C@H](c1ccc(O)c(O)c1)[C@H](O)[C@H]2c1c(O)cc(O)c2c1O[C@H](c1ccc(O)c(O)c1)[C@@H](O)C2` [PCB1, procyanidin B1], the “concentration (log10-intensity) after gastrointestinal digestion in comparison with the other extraction types” value (“concentration (log10-intensity)” for short) in data set [1] is reported as “higher”. The “detection on the basolateral side” value in data set [2] is reported as “not detected”.
Regarding `Cn1c(=O)c2c(ncn2C)n(C)c1=O` [caffeine, reference compound], the “concentration (log10-intensity)” value in data set [1] was “slightly decreased”.
For the compound `O.Oc1cc(O)c2c(c1)O[C@H](c1ccc(O)c(O)c1)[C@@H](O)C2` [catechin], the “concentration (log10-intensity)” value in data set [1] is given as “decreased”. Also, in data set [2], the “T2 values relative to T1 values (absorption percentage)” value is 1.63-1.78 fold and the apparent permeability coefficients is recorded as 3.28-30.47 × 10^−6 cm/s. Also, in data set [3], the apparent permeability was 8 nm/s and the Papp values is 41.9 nm/s.
For `Oc1cc(O)c2c(c1)O[C@H](c1ccc(O)c(O)c1)[C@H](O)C2` [epicatechin], in data set [1], the “concentration (log10-intensity)” value is listed as “decreased”. Besides, in data set [2] (human), the “T2 values relative to T1 values (absorption percentage)” value is listed as 1.56-1.86 fold. The same compound gave an apparent permeability (Papp) in data set [4] of 32.8 to 305 nm/s. Further, the Papp values in data set [3] was 33.8 nm/s.

Broadly, the Papp is a coefficient for how fast a substance crosses the barrier. A lower Papp goes with poor permeation.

(Values after article PMC7700373, “Polyphenolic and Methylxanthine Bioaccessibility of Cocoa Bean Shell Functional Biscuits: Metabolomics Approach and Intestinal Permeability through Caco-2 Cell Models” (Antioxidants, 2020).)
